In patent US8227515B2, “Use of hydroxamic acid derivatives for the preparation of anti-tumour medicaments” (Italfarmaco S.p.A., priority 2003, dated 2012):
Structures can show the parent of a compound that is named as a salt.

Experiments:
[1] = system: KG-1 (myeloid leukaemia); experiment: Tritiated thymidine incorporation, tumour cell growth inhibition; type: cell-based; details: 48 hours with compound, read-out: IC50 (50% cell growth inhibition)
Protocol: (§1) The anti-tumour effect of the compound of example 12 of EP 901465, 4-[6-(diethylaminomethyl)naphth-2-ylmethyloxycarbamoyl)] benzohydroxamic acid hydrochloride (ITF 2357), was tested in vitro by measuring the capacity of the compound to inhibit the growth of tumour cell lines of different histotype deriving from both solid tumours and haematological tumours. The cell lines used were: A549 (pulmonary carcinoma), MDA-MB435 (breast carcinoma) and KG-1 (myeloid leukaemia).
[…] KG-1 cells, grown in RPMI 1640 culture medium, supplemented with 5% fetal calf serum, were seeded in 96 wells-flat bottom-plates (250000 cells/well). ITF 2357 at various doses was immediately added and after 36 hours tritiated thymidine was added to each well (1 μCi/well) and left therein for the following 12 hours. At the end the cells were collected by a cell harvester and the radioactivity contained in each sample which is directly proportionated to DNA synthesis and therefore to cell proliferation was measured by a liquid scintillation beta counter.
(§2) The effect of different doses of ITF 2357 was measured as percent of inhibition of radioactivity incorporation compared with untreated control cells. […]

[2] = system: HT-29 (Colon carcinoma); experiment: Sulforhodamine B viable cell assay, 72 hours; type: cell-based; details: Homo sapiens
Protocol: (§3) Cell lines derived from human solid tumours of different histotype and stabilised in vitro were used in the following experiment. In particular, three cell lines from head and neck tumours (KB, Ca127 and Hep2), two cell lines derived from colon carcinomas (HT-29 and LoVo) and four cell lines derived from melanomas (Colo38, Pes41, Pes43 and Anad) were studied.
(§4) The cells were grown according to conventional methods in flasks containing synthetic culture medium added with fetal serum, at 37° C. under 5% CO2 atmosphere, then seeded in 96 wells plates and allowed to adhere for some hours. ITF 2357 was added in triplicate at increasing doses to each well and the cells were incubated for further 72 hours. Viable cells were labelled by dyeing with sulforhodamine B and their amount was determined by spectrophotometric evaluation of the dye content in each well. The effect of ITF 2357 was calculated as percentage of inhibition, at each concentration, of the dye incorporation in wells containing ITF 2357 compared with control wells (cells without drug). IC50 values of ITF 2357 were calculated by Software Calcusyn (Biosoft) according to dose-response curves.

[3] = system: KB (Head-neck); experiment: Sulforhodamine B viable cell assay, 72 hours; type: cell-based; details: Homo sapiens
Protocol: as §3, §4

[4] = system: LoVo (Colon carcinoma); experiment: Sulforhodamine B viable cell assay, 72 hours; type: cell-based; details: Homo sapiens
Protocol: as §3, §4

[5] = system: Cal27 (Head-neck); experiment: Sulforhodamine B viable cell assay, 72 hours; type: cell-based; details: Homo sapiens, CAL-27
Protocol: as §3, §4

[6] = system: Pes43 (Melanoma); experiment: Sulforhodamine B viable cell assay, 72 hours; type: cell-based; details: Homo sapiens
Protocol: as §3, §4

[7] = system: Pes41 (Melanoma); experiment: Sulforhodamine B viable cell assay, 72 hours; type: cell-based; details: Homo sapiens
Protocol: as §3, §4

[8] = system: Anad (Melanoma); experiment: Sulforhodamine B viable cell assay, 72 hours; type: cell-based; details: Homo sapiens
Protocol: as §3, §4

[9] = system: Colo38 (Melanoma); experiment: Sulforhodamine B viable cell assay, 72 hours; type: cell-based; details: Homo sapiens
Protocol: as §3, §4

[10] = system: Hep-2 (Head-neck); experiment: Sulforhodamine B viable cell assay, 72 hours; type: cell-based; details: Homo sapiens
Protocol: as §3, §4

[11] = system: murine melanoma B16-BL6; experiment: Growth of subcutaneous murine melanoma B16-BL6 in vivo; parameters: species or system mouse C57BL/6; details: female C57BL/6 mice, oral, daily 6 days a week
Source text: The anti-tumour effect of ITF 2357 was studied measuring the capacity of the compound to reduce the growth of the murine melanoma B16-BL6. B16-BL6 tumour is a highly metastatic variant (Sciumbata T. et al. Invasion and Metastasis 1996; 16: 132-143) of the native tumour B16 and it grows subcutaneously in the syngenic mouse C57BL/6 (Gutman M et al. Cancer Biother. 1994; 9(2): 163-170). B16-BL6 tumour cells were inoculated subcutaneously in female C57BL/6 mice (10 animals/group, weight 20-22 grams) at the dose of 2×10^5 cells/mouse. ITF 2357 dissolved in water was administered orally, at the indicated doses, 10 minutes before the inoculum of the tumour cells and then daily for 6 days a week. The tumour growth was expressed as tumour weight, measuring twice a week, by means of a calibre, the two perpendicular diameters of the nodules. The weight was calculated according to the formula: (diameter 1×diameter 2)^2/2 as described in Giavazzi R. et al. Cancer Res. 1986; 46: 1928-1933.

[12] = system: MDA-MB435 (breast carcinoma); experiment: Tritiated thymidine incorporation, tumour cell growth inhibition; type: cell-based; details: Homo sapiens, MDA-MB-435, 48 hours with compound, read-out: IC50 (50% cell growth inhibition)
Protocol: as §1
(§5) A549 and MDA-MB435 cells (respectively grown in E-MEM and D-MEM culture medium, supplemented with 10% of fetal calf serum) were seeded on 96 wells-flat bottom-plates (5000 cells/well) and allowed to adhere for 4 hours at 37° C. under 5% CO2 atmosphere. Thereafter ITF 2357 at various doses was added to each well (4 replicates). […]
(§6) […] At the end the cells were collected by a cell harvester and the radioactivity contained in each sample which is directly proportionated to DNA synthesis and therefore to cell proliferation was measured by a liquid scintillation beta counter.
as §2

[13] = system: A549 (pulmonary carcinoma); experiment: as above; type: cell-based; details: Homo sapiens, 48 hours with compound, read-out: IC50 (50% cell growth inhibition)
Protocol: as §1, §5, §6, §2

Which IC50 [1] does the source give for `CCN(CC)Cc1ccc2cc(COC(=O)Nc3ccc(C(=O)NO)cc3)ccc2c1` [ITF 2357, 4-[6-(diethylaminomethyl)naphth-2-ylmethyloxycarbamoyl)] benzohydroxamic acid hydrochloride] here?
The IC50 was 552 nM.

And the IC50 [2]?
The IC50 was 700 nM.

What about the IC50 [3] of the same compound?
Its IC50 is 640 nM.

And the IC50 [4]?
Its IC50 is 2500 nM.

What about the IC50 [5] of the same compound?
The IC50 was 3400 nM.

What about the IC50 [6] of the same compound?
Its IC50 is 1400 nM.

And the IC50 [7]?
The IC50 was 1600 nM.

And the IC50 [8]?
Its IC50 is 5700 nM.

And the IC50 [9]?
Its IC50 is 2380 nM.

And the IC50 [10]?
The IC50 was 1000 nM.

What about the “effect on the tumour growth” value [11] of the same compound?
The value was “dose-dependent inhibitory effect”.

What about the “reduction of the volume of the tumoural nodule” value ([11]; after 15 days of treatment) of the same compound?
The value was “about 50%”.

What about the IC50 [12] of the same compound?
The IC50 was 73 nM.

What about the IC50 [13] of the same compound?
The IC50 was 495 nM.
